Experimental data as given in patent publication US20060069123A1, “Substituted dipiperidine CCR2 antagonists” (priority 2004, published 2006).
pIC50: −log10 of the molar value. Like-named read-outs stand apart in the source and are kept apart here.

Experiments:
[1] = test system: THP-1 cells; test: MCP-1 Induced Chemotaxis in THP-1 Cells; assay type: cell-based; details: Homo sapiens; THP-1 cells, MCP-1 0.01 μg/mL, 3 hours; read-out: Inhibition of MCP-1 Induced Chemotaxis IC50
[2] = target: T1, CCR2 (Homo sapiens, UniProt P41597)
T1 sequence (P41597 1-360 isoform P41597-2): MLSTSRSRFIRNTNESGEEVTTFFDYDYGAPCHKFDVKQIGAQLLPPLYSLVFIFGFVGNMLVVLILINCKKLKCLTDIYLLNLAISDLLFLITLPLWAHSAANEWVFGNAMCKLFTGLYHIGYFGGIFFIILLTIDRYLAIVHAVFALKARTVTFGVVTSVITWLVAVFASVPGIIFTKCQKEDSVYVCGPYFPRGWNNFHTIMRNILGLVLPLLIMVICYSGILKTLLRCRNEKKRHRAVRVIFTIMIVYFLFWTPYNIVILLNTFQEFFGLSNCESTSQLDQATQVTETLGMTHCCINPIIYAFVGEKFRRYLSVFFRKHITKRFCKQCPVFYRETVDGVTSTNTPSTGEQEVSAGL

[3] = test system: THP-1 cells; details: Homo sapiens; for pIC50: THP-1, read-out: Inhibition of MCP-1 Induced Calcium Ion Influx IC50

Work on O=C(c1cc2ccccc2o1)N1CCC(C(CO)N2CCC(c3c[nH]c4ccccc34)CC2)CC1 (stereo not drawn) [Cpd 154, benzofuran-2-yl-(4-{2-hydroxy-1-[4-(1H-indol-3-yl)-piperidin-1-yl]-ethyl}-piperidin-1-yl)-methanone] yielded a pIC50 [1] of 6.80, a pIC50 [2] of 6.57 and a pIC50 [3] of 5.32.
Work on O=C(/C=C/c1ccc(Cl)c(Cl)c1)N1CCC(C(CO)N2CCC(c3cc[nH]n3)CC2)CC1 (stereo not drawn) [Cpd 155, (2E)-3-(3,4-dichloro-phenyl)-1-(4-{2-hydroxy-1-[4-(1H-pyrazol-3-yl)-piperidin-1-yl]-ethyl}-piperidin-1-yl)-propenone] yielded a pIC50 [1] of 6.89, a pIC50 [2] of 6.68 and a pIC50 [3] of 6.03.
In the case of O=C(/C=C/c1cc(F)c(F)c(F)c1)N1CCC(C(CO)N2CCC(c3cc[nH]n3)CC2)CC1 (stereo not drawn) [Cpd 156, (2E)-1-(4-{2-hydroxy-1-[4-(1H-pyrazol-3-yl)-piperidin-1-yl]-ethyl}-piperidin-1-yl)-3-(3,4,5-trifluoro-phenyl)-propenone], the pIC50 [1] was 6.92, the pIC50 [2] was 7.10 and the inhibition at 25 µM ([3]; THP-1, read-out: Inhibition of MCP-1 Induced Calcium Ion Influx, percent inhibition) was 50%.
O=C(c1cc2cc(Cl)ccc2o1)N1CCC(C(CO)N2CCC(c3c[nH]c4ccccc34)CC2)CC1 (stereo not drawn) [Cpd 157, (5-chloro-benzofuran-2-yl)-(4-{2-hydroxy-1-[4-(1H-indol-3-yl)-piperidin-1-yl]-ethyl}-piperidin-1-yl)-methanone] was tested, and the pIC50 [1] was 6.34, the pIC50 [2] was 6.36 and the pIC50 [3] was 6.49.
Work on COc1ccc(C2CCN(C(CO)C3CCN(C(=O)/C=C/c4cc(F)c(F)c(F)c4)CC3)CC2)cc1 (stereo not drawn) [Cpd 158, (2E)-1-(4-{2-hydroxy-1-[4-(4-methoxy-phenyl)-piperidin-1-yl]-ethyl}-piperidin-1-yl)-3-(3,4,5-trifluoro-phenyl)-propenone] yielded a pIC50 [1] of 7.00, a pIC50 [2] of 7.00 and a pIC50 [3] of 6.85.
COc1ccc(C2CCN(C(CO)C3CCN(C(=O)/C=C/c4ccccc4)CC3)CC2)cc1 (stereo not drawn) [Cpd 159, (2E)-1-(4-{2-hydroxy-1-[4-(4-methoxy-phenyl)-piperidin-1-yl]-ethyl}-piperidin-1-yl)-3-phenyl-propenone] gave a pIC50 [1] of 6.07, a pIC50 [2] of 6.57 and a pIC50 [3] of 5.68.
COc1ccc(C2CCN(C(CO)C3CCN(C(=O)/C=C/c4ccc(F)c(Br)c4)CC3)CC2)cc1 (stereo not drawn) [Cpd 161, (2E)-3-(3-bromo-4-fluoro-phenyl)-1-(4-{2-hydroxy-1-[4-(4-methoxy-phenyl)-piperidin-1-yl]-ethyl}-piperidin-1-yl)-propenone] gave a pIC50 [1] of 7.05, a pIC50 [2] of 7.30 and a pIC50 [3] of 6.74.
COc1ccc2[nH]cc(C3CCN(C(CO)C4CCN(C(=O)/C=C/c5ccc(Cl)c(Cl)c5)CC4)CC3)c2c1 (stereo not drawn) [Cpd 162, (2E)-3-(3,4-dichloro-phenyl)-1-(4-{2-hydroxy-1-[4-(5-methoxy-1H-indol-3-yl)-piperidin-1-yl]-ethyl}-piperidin-1-yl)-propenone] showed a pIC50 [1] of 7.70, a pIC50 [2] of 8.15 and a pIC50 [3] of 8.70.
Work on COc1ccc2c(C3CCN(C(CO)C4CCN(C(=O)/C=C/c5ccc(Cl)c(Cl)c5)CC4)CC3)c[nH]c2c1 (stereo not drawn) [Cpd 163, (2E)-3-(3,4-dichloro-phenyl)-1-(4-{2-hydroxy-1-[4-(6-methoxy-1H-indol-3-yl)-piperidin-1-yl]-ethyl}-piperidin-1-yl)-propenone] yielded a pIC50 [1] of 6.82, a pIC50 [2] of 7.52 and a pIC50 [3] of 8.00.
Compound COc1ccc2[nH]cc(C3CCN(C(CO)C4CCN(C(=O)/C=C/c5cc(F)cc(F)c5)CC4)CC3)c2c1 (stereo not drawn) [Cpd 164, (2E)-3-(3,5-difluoro-phenyl)-1-(4-{2-hydroxy-1-[4-(5-methoxy-1H-indol-3-yl)-piperidin-1-yl]-ethyl}-piperidin-1-yl)-propenone] has a pIC50 [1] of 7.40, a pIC50 [2] of 8.00 and a pIC50 [3] of 8.05.
For COc1ccc2c(C3CCN(C(CO)C4CCN(C(=O)/C=C/c5cc(F)cc(F)c5)CC4)CC3)c[nH]c2c1 (stereo not drawn) [Cpd 165, (2E)-3-(3,5-difluoro-phenyl)-1-(4-{2-hydroxy-1-[4-(6-methoxy-1H-indol-3-yl)-piperidin-1-yl]-ethyl}-piperidin-1-yl)-propenone], the pIC50 [1] was 7.60, the pIC50 [2] was 7.10 and the pIC50 [3] was 6.96.
